Assay results published in patent US20020169153A1, “Substituted aromatic compounds for treatment of antibiotic resistant infections” (priority 1998, published 2002).

Tested on: Staphylococcus aureus methicillin-resistant wild type T67738
Test: Susceptibility test, microtiter broth dilution (MIC), resistant S. aureus
Format: cell-based
Settings: in culture
Protocol: The strains were streaked on blood agar plates (trypticase soy broth containing 5% sheep cells). A single colony was isolated and grown in Mueller-Hinton Broth (MHB) as recommended by the national Committee for Clinical Laboratory Standards for rapidly growing bacteria. Candida species and related yeasts were isolated in a similar manner on brain-heart infusion agar (BHI).
The antibiotic susceptibility profile of each strain was determined using standard microtiter dilution plates obtained from the Clinical Microbiology Laboratory at Ohio State University Hospitals. The Inocula were prepared by suspending a 4 hour log phase growth in MHB visually equal in turbidity of an 0.5 McFarland standard. Inocula were further diluted and added to microdilution trays to achieve a final density of approximately 1×10^5 CFU/ml. The trays were incubated for 16 to 20 hours at 35° C. The highest dilution at which wells remained clear was considered to be the minimum inhibitory concentration (MIC).
The MIC and minimum bacterial concentration (MBC) of the strains to the active agents were determined by two-fold dilutions in Mueller-Hinton broth. […]

OC(c1c2cccc(Cl)c2cc2c(Cl)cccc12)C1CCCCN1 (stereo not drawn) [WR 218394, α-(2-PIPERIDYL)-4,5-DICHLORO-9-ANTHRACENEMETHANOL]
Effective Concentration S. Aureous (Resist).: 3.1 µg/mL
